Patent US5561119A, “Glycosylated prodrugs, their method of preparation and their uses” (Laboratoires Hoechst, priority 1991, dated 1996)
Values after ≈ are worked out from the molar mass of the structure shown. Blank lines part the entries; values can stand above or below the molecule they belong to.

What was measured:
[1] = Proliferation test (MTT reduction) in L1210 tumoral cells; assay type: cell-based, [569, 570, 571, 572, 573, 575]; settings: 72 hours, 37° C.
[2] = beta-glucuronidase
[3] = cleavability of glycosylated prodrugs by α-galactosidase from coffee beans (reversed-phase HPLC); assay type: biochemical, [595, 596, 597]; settings: 37° C., 1 U/ml, pH 7.2 to 6.8
[4] = cleavability of glycosylated prodrugs by recombinant β-glucuronidase (reversed-phase HPLC); settings: for half-life: beta-glucuronidase; for t1/2 arm: time for conversion of 50% of the anthracycline/arm compound to active anthracycline, 37° C., 1 U/ml, pH 7.2 to 6.8
[5] = stability in plasma; assay type: in vitro ADME
[6] = hydrolysis of 48b by α-galactosidase (HPLC); assay type: biochemical, [550, 552, 554]; settings: placental alpha-galactosidase; α-galactosidase from human placenta, 0.075M N-acetylgalactosamine, 37° C., pH 5 (0.02M phosphate buffer); read-out: half-life of hydrolysis of the glycoside (converted)
[7] = hydrolysis of acetates in vivo; settings: 6, 13 and 48a to 7, 14 and 48b respectively
[8] = incubation of 60 with α-galactosidase from unroasted coffee beans (HPLC); assay type: biochemical, [550, 560, 561]; settings: pH 6.8 (0.02M phosphate buffer), 37° C., 0.04 U/ml enzyme, 60 at 660 μg/ml

Compound: COc1cccc2c1C(=O)c1c(O)c3c(c(O)c1C2=O)C[C@@](O)(C(C)=O)C[C@@H]3O[C@H]1C[C@H](NC(=O)OCc2ccc(O[C@H]3O[C@H](CO)[C@H](O)[C@H](O)[C@H]3O)cc2)[C@H](O)[C@H](C)O1 [derivative 7, N-[4-(α-D-Galactopyranosyl)benzyloxycarbonyl]daunorubicin]
IC50 [1]: > 1 µg/mL

Compound: COc1cccc2c1C(=O)c1c(O)c3c(c(O)c1C2=O)C[C@@](O)(C(C)=O)C[C@@H]3O[C@H]1C[C@H](NC(=O)OCc2ccccc2O[C@@H]2O[C@H](C(=O)O)[C@@H](O)[C@H](O)[C@H]2O)[C@H](O)[C@H](C)O1 [derivative 27c, N-[2-((β-D-Glucopyranosyl)uronic acid)benzyloxycarbonyl]daunorubicin]
IC50 [1]: > 1 µg/mL

Compound: COc1cccc2c1C(=O)c1c(O)c3c(c(O)c1C2=O)C[C@@](O)(C(=O)CO)C[C@@H]3O[C@H]1C[C@H](N)[C@H](O)[C@H](C)O1 [doxorubicin, reference compound]
IC50 [1]: 0.02 µg/mL (≈ 0.0368 µM)

Compound: COc1cccc2c1C(=O)c1c(O)c3c(c(O)c1C2=O)C[C@@](O)(C(C)=O)C[C@@H]3O[C@H]1C[C@H](NC(=O)OCc2ccccc2O[C@H]2O[C@H](CO)[C@H](O)[C@H](O)[C@H]2O)[C@H](O)[C@H](C)O1 [derivative 14, N-[2-(α-D-Galactopyranosyl)benzyloxycarbonyl]daunorubicin]
IC50 [1]: > 1 µg/mL

Compound: COc1cccc2c1C(=O)c1c(O)c3c(c(O)c1C2=O)C[C@@](O)(C(C)=O)C[C@@H]3O[C@H]1C[C@H](NC(=O)OCc2ccc(O[C@H]3O[C@H](CO)[C@H](O)[C@H](O)[C@H]3O)c(Cl)c2)[C@H](O)[C@H](C)O1 [derivative 60, N-[3-Chloro-4-(α-D-galactopyranosyl)benzyloxycarbonyl]daunorubicin]
half-life ([3]; alpha-galactosidase, time for cleavage of 50% of the glycoside, read-out: t1/2 cleavage of the glycoside (converted)): 1.2 min
t1/2 arm ([3]; time for conversion of 50% of the anthracycline/arm compound to active anthracycline): < 0,08 h

Compound: COc1cccc2c1C(=O)c1c(O)c3c(c(O)c1C2=O)C[C@@](O)(C(C)=O)C[C@@H]3O[C@H]1C[C@H](NC(=O)OCc2cc([N+](=O)[O-])ccc2O[C@@H]2O[C@H](C(=O)O)[C@@H](O)[C@H](O)[C@H]2O)[C@H](O)[C@H](C)O1 [derivative 54c, N-[2-((β-D-Glucopyranosyl)uronic acid)-5-nitrobenzyloxycarbonyl]daunorubicin]
half-life [4]: 41.4 min
t1/2 arm [4]: 5,30 h

Compound: COc1cccc2c1C(=O)c1c(O)c3c(c(O)c1C2=O)C[C@@](O)(C(C)=O)C[C@@H]3O[C@H]1C[C@H](NC(=O)OCc2ccc(O[C@@H]3O[C@H](C(=O)O)[C@@H](O)[C@H](O)[C@H]3O)cc2)[C@H](O)[C@H](C)O1 [derivative 22, N-(4-Hydroxybenzyloxycarbonyl)daunorubicin β-D-glucuronide]
IC50 [1]: > 10 µg/mL

Compound: COc1cccc2c1C(=O)c1c(O)c3c(c(O)c1C2=O)C[C@@](O)(C(C)=O)C[C@@H]3O[C@H]1C[C@H](NC(=O)OCc2cc([N+](=O)[O-])ccc2O[C@H]2O[C@H](CO)[C@H](O)[C@H](O)[C@H]2O)[C@H](O)[C@H](C)O1 [derivative 48b, N-[2-(α-D-Galactopyranosyl)-5-nitrobenzyloxycarbonyl]daunorubicin]
stability in plasma [5]: stable in plasma
half-life [6]: 60 min
IC50 [1]: > 1 µg/mL

Compound: COc1cccc2c1C(=O)c1c(O)c3c(c(O)c1C2=O)C[C@@](O)(C(C)=O)C[C@@H]3O[C@H]1C[C@H](NC(=O)OCc2cc([N+](=O)[O-])ccc2O[C@H]2O[C@H](COC(C)=O)[C@H](OC(C)=O)[C@H](OC(C)=O)[C@H]2OC(C)=O)[C@H](O)[C@H](C)O1 [derivative 48a, N-[2-(2,3,4,6-Tetra-O-acetyl-α-D-galactopyranosyl)-5-nitrobenzyloxycarbonyl]daunorubicin]
hydrolysis in vivo to the deacetylated prodrug [7]: hydrolyzed in vivo
IC50 [1]: > 10 µg/mL

Compound: COc1cccc2c1C(=O)c1c(O)c3c(c(O)c1C2=O)C[C@@](O)(C(C)=O)C[C@@H]3O[C@H]1C[C@H](NC(=O)OCc2ccccc2O[C@H]2O[C@H](COC(C)=O)[C@H](OC(C)=O)[C@H](OC(C)=O)[C@H]2OC(C)=O)[C@H](O)[C@H](C)O1 [derivative 13, N-[2-(2,3,4,6-Tetra-O-acetyl-α-D-galactopyranosyl)benzyloxycarbonyl]daunorubicin]
hydrolysis in vivo to the deacetylated prodrug [7]: hydrolyzed in vivo
IC50 [1]: > 1 µg/mL

Compound: COc1cccc2c1C(=O)c1c(O)c3c(c(O)c1C2=O)C[C@@](O)(C(C)=O)C[C@@H]3O[C@H]1C[C@H](NC(=O)OCc2ccc(O)c(Cl)c2)[C@H](O)[C@H](C)O1 [deglycosidated derivative 60]
detection of the deglycosidated derivative [8]: not detected because of its high rate of disappearance

Compound: COc1cccc2c1C(=O)c1c(O)c3c(c(O)c1C2=O)C[C@@](O)(C(C)=O)C[C@@H]3O[C@H]1C[C@H](NC(=O)OCc2cc(Cl)ccc2O[C@@H]2O[C@H](C(=O)O)[C@@H](O)[C@H](O)[C@H]2O)[C@H](O)[C@H](C)O1 [derivative 82c, N-[2-((β-D-glucopyranosyl)uronic acid)-5-chlorobenzyloxycarbonyl]daunorubicin]
half-life [4]: 244 min
t1/2 arm [4]: 12,00 h

Compound: COc1cccc2c1C(=O)c1c(O)c3c(c(O)c1C2=O)C[C@@](O)(C(C)=O)C[C@@H]3O[C@H]1C[C@H](NC(=O)OCc2ccc(O[C@H]3O[C@H](COC(C)=O)[C@H](OC(C)=O)[C@H](OC(C)=O)[C@H]3OC(C)=O)cc2)[C@H](O)[C@H](C)O1 [derivative 6, N-[4-(2,3,4,6-Tetra-O-acetyl-α-D-galactopyranosyl)benzyloxycarbonyl]daunorubicin]
hydrolysis in vivo to the deacetylated prodrug [7]: hydrolyzed in vivo
IC50 [1]: > 1 µg/mL

Next, values leading:

t1/2 cleavage of the glycoside [2]: 0,92 h
Compound: COc1cccc2c1C(=O)c1c(O)c3c(c(O)c1C2=O)CC(O)(C(=O)CO)CC3OC1CC(NC(=O)OCc2ccc(OC3OC(C(=O)O)C(O)C(O)C3O)c([N+](=O)[O-])c2)C(O)C(C)O1 [derivative 70c, N-[4-hydroxy-3-nitro-benzyloxy-carbonyl) doxorubicin β-D-glucuronide]

half-life [4]: 113 min
t1/2 arm [4]: 0,75 h
Compound: COc1cc(O[C@@H]2O[C@H](C(=O)O)[C@@H](O)[C@H](O)[C@H]2O)c(COC(=O)N[C@H]2C[C@H](O[C@H]3C[C@](O)(C(C)=O)Cc4c(O)c5c(c(O)c43)C(=O)c3c(OC)cccc3C5=O)O[C@@H](C)[C@H]2O)cc1[N+](=O)[O-] [derivative 68c, N-[4-Methoxy-5-nitro-2-((β-D-glucopyranosyl)uronic acid)benzyloxycarbonyl]daunorubicin]

half-life [4]: 25.2 min
t1/2 arm [4]: < 0,08 h
Compound: COc1cccc2c1C(=O)c1c(O)c3c(c(O)c1C2=O)C[C@@](O)(C(C)=O)C[C@@H]3O[C@H]1C[C@H](NC(=O)OCc2ccc(O[C@@H]3O[C@H](C(=O)O)[C@@H](O)[C@H](O)[C@H]3O)c([N+](=O)[O-])c2)[C@H](O)[C@H](C)O1 [derivative 64c, N-(4-Hydroxy-3-nitrobenzyloxycarbonyl)daunorubicin β-D-glucuronide]
